Where two headings read alike, the source gives them in different places.
Key:
[1] = biological target: hERG ion channels (Homo sapiens (Human), UniProt Q12809); assay: Inhibition activity test on hERG ion channels in HEK293 cells (cardiac safety, patch clamp)
Experimental: This experiment is used as a cardiac safety test of compound.
The reagents are purchased from Sigma (St. Louis, MO) except NaOH and KOH for acid-base titration. Final concentrations of tested solutions are prepared on the testing day and dissolved in extracellular fluid. […] All the test solutions and the control solutions contain 0.3% DMSO. Intracellular fluid (mM) contains: K Aspartate, 130; MgCl2, 5; EGTA 5; HEPES, 10; Tris-ATP 4; pH 7.2 (KOH titration).
Cells: all experiments is performed at room temperature. Each cell itself is taken as the corresponding control.
Compounds are all perfused using a perfusion system that utilizes the gravity. At least two cells are tested per concentration. After current stabilization (or 5 minutes), the change in current magnitude before and after the use of the compound is compared to calculate the blocking effect of the compound.
The method of operation is the same as that of the test compound.
Electrophysiology: Transfer the Cells to the perfusion tank and perfuse with extracellular fluid. The intracellular fluid (mM) contains: K Aspartate, 130; MgCl2, 5; EGTA 5; HEPES, 10; Tris-ATP 4; pH 7.2 (KOH titration). The intracellular fluid is stored in small quantities in portions in a −80° C. refrigerator, and melt on the day of the experiment. Electrodes are drawn with PC-10 (Narishige, Japan). Recording is performed with whole-cell diaphragm clamp. Noise is filtered with one-fifth of the sampling frequency.
This process is repeated every 20 seconds. The hERG tail current is the pure hERG current. The maximum tail current triggered by the second square wave is detected, and when the current is stabilized, the test compound is perfused. The strength of the block is calculated when the response is stabilized.

[2] = biological target: human NaV1.8 ion channel (Homo sapiens (Human), UniProt Q9Y5Y9); assay: Compound inhibition activity on human NaV1.8 ion channel in HEK293 cells (whole-cell patch clamp); format: cell-based; conditions: 100 nm concentration, HEK293 cells, resting protocol
Sequence of human NaV1.8 ion channel (Q9Y5Y9 whole entry): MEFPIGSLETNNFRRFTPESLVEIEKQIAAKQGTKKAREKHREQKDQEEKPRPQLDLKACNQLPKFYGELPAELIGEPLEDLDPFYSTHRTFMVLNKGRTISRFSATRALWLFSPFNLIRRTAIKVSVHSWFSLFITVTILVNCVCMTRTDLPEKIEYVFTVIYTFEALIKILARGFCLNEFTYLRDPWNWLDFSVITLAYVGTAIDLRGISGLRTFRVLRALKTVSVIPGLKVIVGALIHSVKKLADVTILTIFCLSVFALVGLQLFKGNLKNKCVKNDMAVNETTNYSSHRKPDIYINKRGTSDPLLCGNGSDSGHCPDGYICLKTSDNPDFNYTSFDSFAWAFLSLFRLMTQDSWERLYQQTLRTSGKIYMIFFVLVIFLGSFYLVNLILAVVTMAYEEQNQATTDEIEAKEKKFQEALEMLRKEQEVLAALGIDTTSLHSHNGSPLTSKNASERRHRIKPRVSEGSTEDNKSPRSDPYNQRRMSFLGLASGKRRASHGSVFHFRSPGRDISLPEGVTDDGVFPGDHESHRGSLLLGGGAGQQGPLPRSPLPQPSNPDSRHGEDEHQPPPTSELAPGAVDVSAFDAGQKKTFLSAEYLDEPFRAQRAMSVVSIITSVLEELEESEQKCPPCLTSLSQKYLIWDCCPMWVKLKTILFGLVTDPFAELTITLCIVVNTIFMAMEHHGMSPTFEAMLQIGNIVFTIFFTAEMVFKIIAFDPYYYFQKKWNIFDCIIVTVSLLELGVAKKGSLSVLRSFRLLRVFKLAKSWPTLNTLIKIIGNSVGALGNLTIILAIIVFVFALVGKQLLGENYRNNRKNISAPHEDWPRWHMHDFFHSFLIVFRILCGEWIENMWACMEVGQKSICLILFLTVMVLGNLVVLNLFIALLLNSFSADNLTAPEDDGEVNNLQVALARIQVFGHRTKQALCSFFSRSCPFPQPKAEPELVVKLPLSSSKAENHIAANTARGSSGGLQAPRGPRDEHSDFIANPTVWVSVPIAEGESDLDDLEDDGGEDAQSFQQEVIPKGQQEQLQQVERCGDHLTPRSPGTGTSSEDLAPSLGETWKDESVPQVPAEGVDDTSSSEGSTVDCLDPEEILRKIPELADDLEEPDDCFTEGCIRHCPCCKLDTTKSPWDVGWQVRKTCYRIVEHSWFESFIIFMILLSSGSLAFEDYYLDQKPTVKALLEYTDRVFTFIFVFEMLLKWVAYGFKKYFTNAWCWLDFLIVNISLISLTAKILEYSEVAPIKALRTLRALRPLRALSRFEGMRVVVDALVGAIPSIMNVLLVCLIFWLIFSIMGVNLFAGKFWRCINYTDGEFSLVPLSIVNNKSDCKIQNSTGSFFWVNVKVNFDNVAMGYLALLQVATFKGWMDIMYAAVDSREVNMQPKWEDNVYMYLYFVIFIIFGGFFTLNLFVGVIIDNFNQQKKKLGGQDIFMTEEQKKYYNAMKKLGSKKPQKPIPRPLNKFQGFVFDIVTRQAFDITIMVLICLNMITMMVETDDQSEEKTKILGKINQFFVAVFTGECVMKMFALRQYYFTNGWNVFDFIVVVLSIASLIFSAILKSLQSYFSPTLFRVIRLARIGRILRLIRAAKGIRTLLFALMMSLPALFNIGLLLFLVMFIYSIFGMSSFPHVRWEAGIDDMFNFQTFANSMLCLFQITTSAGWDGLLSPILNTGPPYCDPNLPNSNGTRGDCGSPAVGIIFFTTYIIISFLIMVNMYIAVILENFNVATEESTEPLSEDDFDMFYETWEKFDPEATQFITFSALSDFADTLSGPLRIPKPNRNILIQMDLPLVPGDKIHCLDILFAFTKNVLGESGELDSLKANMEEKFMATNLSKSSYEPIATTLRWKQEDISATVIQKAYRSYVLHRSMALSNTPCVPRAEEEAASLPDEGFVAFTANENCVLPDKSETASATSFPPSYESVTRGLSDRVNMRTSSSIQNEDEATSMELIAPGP

[3] = biological target: NaV1.3 (Homo sapiens (Human), UniProt Q9NY46); assay: Selectivity test for Nav ion channel subtypes: NaV1.3 (HEK293, patch clamp); format: cell-based; conditions: 1 uM; HEK293 cells
Experimental: (§1) Test Case 3: Compound Selectivity Test for Nav Ion Channel Subtypes
(§2) The aim of this test is to investigate effect of compounds on human Na ion channel cells expressed in steady-state (NaV1.1, NaV1.3, NaV1.4, NaV1.5, NaV1.6, NaV1.7). After Na ion currents is stabilized, the effect can be obtained by comparing the magnitude of Na channel currents before and after the application of the compounds.
(§3) The test compound is stored at a concentration of 9 mM in dimethyl sulfoxide (DMSO), and on the day of testing, dissolve in extracellular solution, then prepare to a screening concentration of 1 uM.
(§4) All experiments are performed at room temperature. Each cell itself is taken as the corresponding control.
(§5) At least one cell is tested per concentration.
(§6) HEK293 cells steadily expressing NaV1.1-, NaV1.3-, NaV1.4-, NaV1.5-, NaV1.6-ion channels; CHO cells expressing steadily NaV1.7 ion channel.
(§7) The intracellular fluid (mM) is: Aspartic acid, 140; MgCl2, 2; EGTA 11; HEPES, 10; pH 7.2 (CsOH titration). […] Electrodes are drawn with PC-10 (Narishige, Japan). Recording is performed with whole-cell diaphragm clamp.
(§8) Cells are clamped at −80 mV and then depolarized to −10 mV with a sustained 10 ms square wave to obtain Na ion channel currents (see the FIGURE). This process is repeated every 5 seconds. […] The strength of the block is calculated after the response is stabilized.

[4] = biological target: NaV1.6 (Homo sapiens (Human), UniProt Q9UQD0); assay: Selectivity test for Nav ion channel subtypes: NaV1.6 (HEK293, patch clamp); format: cell-based; conditions: 1 uM; HEK293 cells
Experimental: as §1, §2, §3, §4, §5, §6, §7, §8

[5] = biological target: NaV1.5 (Homo sapiens (Human), UniProt Q14524); assay: Selectivity test for Nav ion channel subtypes: NaV1.5 (HEK293, patch clamp); format: cell-based; conditions: 1 uM; HEK293 cells
Experimental: as §1, §2, §3, §4, §5, §6, §7, §8

[6] = biological target: NaV1.4 (Homo sapiens (Human), UniProt P35499); assay: Selectivity test for Nav ion channel subtypes: NaV1.4 (HEK293, patch clamp); format: cell-based; conditions: 1 uM; HEK293 cells
Experimental: as §1, §2, §3, §4, §5, §6, §7, §8

[7] = biological target: NaV1.1 (Homo sapiens (Human), UniProt P35498); assay: Selectivity test for Nav ion channel subtypes: NaV1.1 (HEK293, patch clamp); format: cell-based; conditions: 1 uM; HEK293 cells
Experimental: as §1, §2, §3, §4, §5, §6, §7, §8

[8] = biological target: NaV1.7 (Homo sapiens (Human), UniProt Q15858); assay: Selectivity test for Nav ion channel subtypes: NaV1.7 (CHO cells, patch clamp); format: cell-based; conditions: 1 uM
Sequence of NaV1.7 (Q15858 whole entry): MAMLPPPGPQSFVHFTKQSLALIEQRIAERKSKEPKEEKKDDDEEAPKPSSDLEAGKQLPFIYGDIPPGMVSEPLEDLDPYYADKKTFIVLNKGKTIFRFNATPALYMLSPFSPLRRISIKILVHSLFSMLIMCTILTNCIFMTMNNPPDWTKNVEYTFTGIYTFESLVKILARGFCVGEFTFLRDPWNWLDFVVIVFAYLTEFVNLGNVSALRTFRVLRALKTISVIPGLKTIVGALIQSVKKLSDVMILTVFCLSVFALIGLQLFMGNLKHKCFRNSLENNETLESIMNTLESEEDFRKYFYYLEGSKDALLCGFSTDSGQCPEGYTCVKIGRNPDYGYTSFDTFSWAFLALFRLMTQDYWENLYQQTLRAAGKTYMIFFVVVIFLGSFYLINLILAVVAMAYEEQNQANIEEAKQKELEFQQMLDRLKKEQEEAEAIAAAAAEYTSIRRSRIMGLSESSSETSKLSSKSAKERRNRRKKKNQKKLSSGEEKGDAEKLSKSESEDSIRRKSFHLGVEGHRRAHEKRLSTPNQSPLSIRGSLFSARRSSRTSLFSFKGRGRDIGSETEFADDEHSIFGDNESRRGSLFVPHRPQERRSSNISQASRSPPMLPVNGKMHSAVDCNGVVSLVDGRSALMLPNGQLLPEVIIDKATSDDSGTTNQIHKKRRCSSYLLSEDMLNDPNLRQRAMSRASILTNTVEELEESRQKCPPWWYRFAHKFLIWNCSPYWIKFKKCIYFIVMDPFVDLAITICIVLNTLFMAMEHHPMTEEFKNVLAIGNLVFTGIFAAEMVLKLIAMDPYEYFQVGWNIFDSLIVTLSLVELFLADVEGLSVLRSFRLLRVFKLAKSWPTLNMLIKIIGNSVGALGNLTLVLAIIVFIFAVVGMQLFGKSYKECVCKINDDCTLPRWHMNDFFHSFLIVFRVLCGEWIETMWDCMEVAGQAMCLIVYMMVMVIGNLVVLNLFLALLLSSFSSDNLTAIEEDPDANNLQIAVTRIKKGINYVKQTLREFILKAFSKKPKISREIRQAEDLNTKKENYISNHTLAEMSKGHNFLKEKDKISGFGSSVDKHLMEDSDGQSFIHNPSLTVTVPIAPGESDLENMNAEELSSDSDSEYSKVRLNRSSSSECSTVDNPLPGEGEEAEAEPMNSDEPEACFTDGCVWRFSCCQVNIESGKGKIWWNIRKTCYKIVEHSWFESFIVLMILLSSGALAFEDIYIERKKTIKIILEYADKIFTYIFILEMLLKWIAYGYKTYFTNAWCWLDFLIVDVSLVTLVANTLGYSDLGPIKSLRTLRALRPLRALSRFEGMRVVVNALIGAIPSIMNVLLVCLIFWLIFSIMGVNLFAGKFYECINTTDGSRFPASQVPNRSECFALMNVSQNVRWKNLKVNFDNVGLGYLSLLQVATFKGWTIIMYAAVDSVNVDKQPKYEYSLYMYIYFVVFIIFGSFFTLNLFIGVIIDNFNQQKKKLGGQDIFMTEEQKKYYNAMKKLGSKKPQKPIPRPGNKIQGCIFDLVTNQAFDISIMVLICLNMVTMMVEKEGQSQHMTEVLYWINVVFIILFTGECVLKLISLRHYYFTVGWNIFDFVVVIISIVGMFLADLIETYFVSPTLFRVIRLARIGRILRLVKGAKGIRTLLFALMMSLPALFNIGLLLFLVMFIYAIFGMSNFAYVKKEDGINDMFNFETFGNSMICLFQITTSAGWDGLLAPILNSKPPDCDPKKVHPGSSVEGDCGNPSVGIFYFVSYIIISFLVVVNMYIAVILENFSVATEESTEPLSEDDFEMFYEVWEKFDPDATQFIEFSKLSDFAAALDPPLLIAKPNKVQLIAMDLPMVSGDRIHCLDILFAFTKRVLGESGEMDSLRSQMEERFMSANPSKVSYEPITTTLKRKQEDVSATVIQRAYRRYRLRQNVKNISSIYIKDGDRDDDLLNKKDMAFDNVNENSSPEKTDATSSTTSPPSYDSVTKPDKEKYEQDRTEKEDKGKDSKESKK
Experimental: as §1, §2, §3, §4, §5, §6, §7, §8

[9] = In vivo pharmacokinetic testing of compounds in rats; conditions: rat, male SD rats, single oral dose 100 mg/kg, plasma, VX-150 dosed as prodrug, active form analysed
Experimental: Test Case 4: In Vivo Pharmacokinetic Testing of Compounds in Rats
All SD rats in the test are male and are purchased from Shanghai Sippe-Bk Lab Animal Co., Ltd. Each compound is administered orally (100 mg/kg, 3 rats per group) at single dose to SD rats for pharmacokinetic study. The solutions are prepared on the same day of administration, e.g., the tested compound is suspended in 5% DMSO+95% saline, get vortexed for 2 min, and sonicated for 5 min to prepare a drug delivery system. The animals are fasted for 10-14 hours before oral administration, and resumed food 4 hours after administration. After oral administration by gavage in SD rats, pharmacokinetic samples are collected from jugular vein at the following time points: 0, 15 min, 30 min, 1 h, 2 h, 4 h, 6 h, 8 h and 24 h. Three whole blood samples are collected at each time point in a volume of about 0.2 mL and anticoagulated using sodium heparin. Blood samples are placed on ice immediately after collection and plasma is separated by centrifugation within 1 h (centrifugation conditions: 6800 rpm, 6 min, 2-8° C.). The collected plasma is stored in a −80° C. refrigerator prior to analysis.
In pharmacokinetic tests in rat, the control compound VX-150 is a prodrug (WO2015089361, compound 9), after administration, analysis is performed to test its active form (WO2014120808, compound 10). The aforementioned in vitro pharmacological tests are performed using the active ingredient (WO2014120808, compound 10).

[10] = read-out: Inhibition ratio of Nav1.8 (Activity of inhibition)
[11] = read-out: Inhibition ratio of compounds against Nav1.8 (Activity of inhibition)

Sequence of hERG ion channels (Q12809 whole entry): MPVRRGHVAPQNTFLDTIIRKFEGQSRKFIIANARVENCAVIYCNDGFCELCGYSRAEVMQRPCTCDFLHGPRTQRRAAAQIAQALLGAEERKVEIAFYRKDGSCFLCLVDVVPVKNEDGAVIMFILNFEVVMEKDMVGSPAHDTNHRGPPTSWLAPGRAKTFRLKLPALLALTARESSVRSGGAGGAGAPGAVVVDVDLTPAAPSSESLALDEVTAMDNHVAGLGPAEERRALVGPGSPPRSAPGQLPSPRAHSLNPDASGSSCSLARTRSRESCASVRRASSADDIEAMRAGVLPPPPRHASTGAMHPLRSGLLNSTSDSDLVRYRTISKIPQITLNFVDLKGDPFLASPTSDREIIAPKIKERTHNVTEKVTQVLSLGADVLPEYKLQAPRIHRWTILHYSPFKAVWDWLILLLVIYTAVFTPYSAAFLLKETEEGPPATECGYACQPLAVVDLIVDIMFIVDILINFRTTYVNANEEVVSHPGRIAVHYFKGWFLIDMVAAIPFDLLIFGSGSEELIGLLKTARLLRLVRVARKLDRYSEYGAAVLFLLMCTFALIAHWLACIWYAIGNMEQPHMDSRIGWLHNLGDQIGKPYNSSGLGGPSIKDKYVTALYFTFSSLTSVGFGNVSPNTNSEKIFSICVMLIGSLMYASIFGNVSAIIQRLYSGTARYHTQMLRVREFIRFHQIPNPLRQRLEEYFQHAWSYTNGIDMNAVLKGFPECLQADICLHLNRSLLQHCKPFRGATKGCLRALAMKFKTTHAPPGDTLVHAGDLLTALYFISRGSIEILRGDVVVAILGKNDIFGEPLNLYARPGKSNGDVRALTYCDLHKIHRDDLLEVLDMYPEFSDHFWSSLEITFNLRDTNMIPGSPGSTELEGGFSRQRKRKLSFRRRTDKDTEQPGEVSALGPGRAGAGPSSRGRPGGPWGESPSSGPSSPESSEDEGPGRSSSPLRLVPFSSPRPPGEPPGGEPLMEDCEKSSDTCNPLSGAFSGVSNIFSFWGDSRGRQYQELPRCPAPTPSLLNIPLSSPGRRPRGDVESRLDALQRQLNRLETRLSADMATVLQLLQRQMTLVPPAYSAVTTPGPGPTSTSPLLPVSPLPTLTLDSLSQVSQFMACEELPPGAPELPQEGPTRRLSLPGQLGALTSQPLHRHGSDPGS

Compound `Cc1cc(F)ccc1Oc1ccc(C(F)(F)F)cc1C(=O)Nc1ccc(F)c(C(N)CC(N)=O)c1` (stereo not shown) [Example 1, N-(3-(1,3-diamino-3-oxopropyl)-4-fluorophenyl)-2-(4-fluoro-2-methylphenoxy)-5-(trifluoromethyl) benzamide] has an IC50 ([1]; read-out: IC50 for hERG inhibited by compounds, HEK293 cells, hERG tail current) of 3.2 µM.
With `Cc1cc(F)ccc1Oc1ccc(C(F)(F)F)cc1C(=O)Nc1ccc(F)c(C(N)C(N)=O)c1` (stereo not shown) [Example 36] the inhibition at 0.1 µM [2, 10] was > 80% and the IC50 ([1]; human, pH 7.4) was 10.5 µM.
Compound `Cc1cc(F)ccc1Oc1ccc(C(F)(F)F)cc1C(=O)Nc1ccc(F)c(C(N)CCO)c1` (stereo not shown) [Example 38] has an inhibition at 0.1 µM [2, 10] of 50 to 80% and an IC50 ([1]; human, pH 7.4) of 3 µM.
Compound `Cc1cc(F)ccc1Oc1cc(C2CC2)c(C(F)(F)F)cc1C(=O)Nc1ccc(F)c(OCC(O)CNc2ccn[nH]2)c1` (stereo not shown) [Example 99] has an inhibition at 0.1 µM [2, 11] of 50 to 80%.
For `Cc1cc(F)ccc1Oc1cc(C2CC2)c(C(F)(F)F)cc1C(=O)Nc1ccc(F)c(OCC(O)CNc2ncc[nH]2)c1` (stereo not shown) [Example 100], the inhibition at 0.1 µM [2, 11] was 50 to 80%.
Compound `Cc1cc(F)ccc1Oc1cc(C(F)(F)F)c(Cl)cc1C(=O)Nc1cnnc(OCC(O)CO)c1` (stereo not shown) [Example 101] has an inhibition at 0.1 µM [2, 11] of 50 to 80%.
`Cc1cc(F)ccc1Oc1cc(C2CC2)c(C(F)(F)F)cc1C(=O)Nc1cnnc(OCC(O)CO)c1` (stereo not shown) [Example 102] showed an inhibition at 0.1 µM [2, 11] of 50 to 80%.
For `Cc1cc(F)ccc1Oc1cc(C(F)(F)F)c(Cl)cc1C(=O)Nc1ccnc(OCC(O)CO)c1` (stereo not shown) [Example 103], the inhibition at 0.1 µM [2, 11] was > 80%.
For `Cc1cc(F)ccc1Oc1cc(C2CC2)c(C(F)(F)F)cc1C(=O)Nc1ccnc(OC[C@H](O)CO)c1` [Example 104], the “Inhibition ratio on Nav1.3” value [3] was 4.3%, the inhibition at 0.1 µM [2, 11] was > 80% and the “Inhibition ratio on Nav1.6” value [4] was 2.8%. For the same compound, the “Inhibition ratio on Nav1.5” value [5] was <1%, the “Inhibition ratio on Nav1.4” value [6] was <1% and the “Inhibition ratio on Nav1.1” value [7] was 1.5%. The “Inhibition ratio on Nav1.7” value [8] was 1.3%, the IC50 ([1]; human, pH 7.4) was 3.8 µM and the half-life [9] was 5.1 h. The AUC ([9]; read-out: AUC) was 58000 ng·h/mL and the Cmax ([9]; read-out: Cmax) was 5140 ng/mL.
`Cc1cc(F)ccc1Oc1cc(C2CC2)c(C(F)(F)F)cc1C(=O)Nc1ccnc(OC[C@@H](O)CO)c1` [Example 105] showed an inhibition at 0.1 µM [2, 11] of 50 to 80%.
For `Cc1cc(F)ccc1Oc1cc(C(F)(F)F)c(Cl)cc1C(=O)Nc1ccc(F)c(OCC(O)CNC(C)C)c1` (stereo not shown) [Example 106], the inhibition at 0.1 µM [2, 11] was > 80%.
`Cc1cc(F)ccc1Oc1cc(C(F)(F)F)ccc1C(=O)Nc1ccc(F)c(OCC(O)CNC(=O)CO)c1` (stereo not shown) [Example 107] gave an inhibition at 0.1 µM [2, 11] of 50 to 80%.
Work on `Cc1cc(F)ccc1Oc1cc(C(F)(F)F)ccc1C(=O)Nc1ccnc(OC[C@H](O)CO)c1` [Example 108] yielded an inhibition at 0.1 µM [2, 11] of 50 to 80%.

Reference: patent publication US20230303497A1, “BENZYLAMINE OR BENZYL ALCOHOL DERIVATIVE AND USES THEREOF” (CHENGDU HYPERWAY PHARMACEUTICALS CO., LTD, priority 2020, published 2023)
